Species on record: Rattus norvegicus
Assay: Open TG-GATES - Regimen: Single
Format: toxicity, organism-based, Sprague-Dawley
Design: regimen Single, gender Male, age 6 weeks
Conditions: in vivo, po, 2000 mg/kg, route gavage, dose level High; for APTT / Bas / Eos / Fbg / Hb / Ht / Lym / MCH / MCHC / MCV / Mono / Neu / Plat / RBC / Ret / WBC: tissue Blood; for KIDNEY_L / KIDNEY_R / KIDNEY_TOTAL: tissue Kidney; for LIVER: tissue Liver; for ALP / ALT / AST / BUN / CRE / Ca / Cl / DBIL / GLC / IP / K / LDH / Na / PL / RALB / TBIL / TC / TG / TP / gamma-GTP: tissue Plasma

`CC(=O)Oc1ccccc1C(=O)O` [ASPIRIN] was tested. Which TERMINAL_BW (3 h) did it give?
Its TERMINAL_BW is 220 g.

What about the APTT (3 h) of the same molecule?
Its APTT is 19.5 s.

And the Bas (3 h)?
The Bas was 0%.

And the Eos (3 h)?
Its Eos is 1.2%.

What about the Fbg (3 h) of the same molecule?
Its Fbg is 224.8 mg/dL.

What about the Hb (3 h) of the same molecule?
The Hb was 13.7 g/dL.

And the Ht (3 h)?
Its Ht is 37.7%.

What about the Lym (3 h) of the same molecule?
Its Lym is 62.2%.

And the MCH (3 h)?
Its MCH is 21.9 pg.

And the MCHC (3 h)?
The MCHC was 36.3%.

What about the MCV (3 h) of the same molecule?
The MCV was 60.4 fL.

What about the Mono (3 h) of the same molecule?
The Mono was 4.6%.

And the Neu (3 h)?
The Neu was 30.4%.

And the Plat (3 h)?
The Plat was 124.1 x10_4/uL.

And the RBC (3 h)?
Its RBC is 625.8 x10_4/ul.

What about the Ret (3 h) of the same molecule?
The Ret was 8.1%.

What about the WBC (3 h) of the same molecule?
Its WBC is 71.4 x10_2/uL.

What about the KIDNEY_L (3 h) of the same molecule?
The KIDNEY_L was 1 g.

And the KIDNEY_R (3 h)?
The KIDNEY_R was 1 g.

And the KIDNEY_TOTAL (3 h)?
Its KIDNEY_TOTAL is 1.9 g.

And the LIVER (3 h)?
Its LIVER is 8.9 g.

What about the ALP (3 h) of the same molecule?
Its ALP is 991.6 IU/L.

And the ALT (3 h)?
Its ALT is 41.4 IU/L.

And the AST (3 h)?
Its AST is 86.6 IU/L.

And the BUN (3 h)?
The BUN was 15.6 mg/dL.

What about the CRE (3 h) of the same molecule?
Its CRE is 0.4 mg/dL.

What about the Ca (3 h) of the same molecule?
The Ca was 8.3 mg/dL.

What about the Cl (3 h) of the same molecule?
Its Cl is 103.6 meq/L.

And the DBIL (3 h)?
Its DBIL is 0.06 mg/dL.

What about the GLC (3 h) of the same molecule?
Its GLC is 200 mg/dL.

What about the IP (3 h) of the same molecule?
The IP was 9 mg/dL.

What about the K (3 h) of the same molecule?
The K was 3.4 meq/L.

And the LDH (3 h)?
The LDH was 248.4 IU/L.

What about the Na (3 h) of the same molecule?
The Na was 141 meq/L.

And the PL (3 h)?
Its PL is 96.4 mg/dL.

What about the RALB (3 h) of the same molecule?
Its RALB is 3.5 g/dL.

What about the TBIL (3 h) of the same molecule?
Its TBIL is 0.1 mg/dL.

What about the TC (3 h) of the same molecule?
The TC was 62 mg/dL.

And the TG (3 h)?
Its TG is 24 mg/dL.

And the TP (3 h)?
The TP was 5.8 g/dL.

What about the gamma-GTP (3 h) of the same molecule?
The gamma-GTP was 1.4 IU/L.

And the TERMINAL_BW (6 h)?
Its TERMINAL_BW is 217 g.

And the APTT (6 h)?
Its APTT is 20.8 s.

What about the Bas (6 h) of the same molecule?
The Bas was 0%.

And the Eos (6 h)?
Its Eos is 0.8%.

What about the Fbg (6 h) of the same molecule?
Its Fbg is 225.6 mg/dL.

What about the Hb (6 h) of the same molecule?
Its Hb is 13.7 g/dL.

What about the Ht (6 h) of the same molecule?
The Ht was 37.8%.

And the Lym (6 h)?
The Lym was 63.8%.

And the MCH (6 h)?
The MCH was 22.1 pg.

What about the MCHC (6 h) of the same molecule?
The MCHC was 36.3%.

And the MCV (6 h)?
Its MCV is 60.8 fL.

And the Mono (6 h)?
The Mono was 3%.

What about the Neu (6 h) of the same molecule?
Its Neu is 31.6%.

And the Plat (6 h)?
Its Plat is 118.3 x10_4/uL.

What about the RBC (6 h) of the same molecule?
The RBC was 622 x10_4/ul.

And the Ret (6 h)?
Its Ret is 8.3%.

What about the WBC (6 h) of the same molecule?
The WBC was 91.9 x10_2/uL.

And the KIDNEY_L (6 h)?
The KIDNEY_L was 1 g.

What about the KIDNEY_R (6 h) of the same molecule?
The KIDNEY_R was 1 g.

And the KIDNEY_TOTAL (6 h)?
The KIDNEY_TOTAL was 2 g.

What about the LIVER (6 h) of the same molecule?
Its LIVER is 8.3 g.

What about the ALP (6 h) of the same molecule?
Its ALP is 843.8 IU/L.

What about the ALT (6 h) of the same molecule?
The ALT was 35.4 IU/L.

And the AST (6 h)?
The AST was 79 IU/L.

And the BUN (6 h)?
Its BUN is 17.8 mg/dL.

And the CRE (6 h)?
Its CRE is 0.4 mg/dL.

And the Ca (6 h)?
Its Ca is 8.1 mg/dL.

And the Cl (6 h)?
Its Cl is 104.2 meq/L.

What about the DBIL (6 h) of the same molecule?
Its DBIL is 0.056 mg/dL.

What about the GLC (6 h) of the same molecule?
Its GLC is 221.4 mg/dL.

And the IP (6 h)?
The IP was 7.9 mg/dL.

And the K (6 h)?
The K was 3.2 meq/L.

What about the LDH (6 h) of the same molecule?
The LDH was 233.4 IU/L.

And the Na (6 h)?
Its Na is 140.4 meq/L.

What about the PL (6 h) of the same molecule?
Its PL is 103.4 mg/dL.

What about the RALB (6 h) of the same molecule?
The RALB was 3.5 g/dL.

And the TBIL (6 h)?
The TBIL was 0.1 mg/dL.

And the TC (6 h)?
The TC was 67.8 mg/dL.

What about the TG (6 h) of the same molecule?
The TG was 12.2 mg/dL.

And the TP (6 h)?
The TP was 5.7 g/dL.

What about the gamma-GTP (6 h) of the same molecule?
The gamma-GTP was 1.2 IU/L.

And the TERMINAL_BW (9 h)?
Its TERMINAL_BW is 217.3 g.

And the APTT (9 h)?
Its APTT is 22.1 s.

What about the Bas (9 h) of the same molecule?
Its Bas is 0%.

And the Eos (9 h)?
Its Eos is 0.8%.

And the Fbg (9 h)?
The Fbg was 224.8 mg/dL.

And the Hb (9 h)?
Its Hb is 13.9 g/dL.

And the Ht (9 h)?
Its Ht is 38.3%.

And the Lym (9 h)?
The Lym was 65%.

And the MCH (9 h)?
Its MCH is 21.8 pg.

What about the MCHC (9 h) of the same molecule?
Its MCHC is 36.3%.

What about the MCV (9 h) of the same molecule?
Its MCV is 60.1 fL.

And the Mono (9 h)?
The Mono was 2.2%.

What about the Neu (9 h) of the same molecule?
The Neu was 31.2%.

What about the Plat (9 h) of the same molecule?
The Plat was 127.8 x10_4/uL.

What about the RBC (9 h) of the same molecule?
The RBC was 636.2 x10_4/ul.

And the Ret (9 h)?
The Ret was 8%.

And the WBC (9 h)?
Its WBC is 88.7 x10_2/uL.

What about the KIDNEY_L (9 h) of the same molecule?
The KIDNEY_L was 0.9 g.

What about the KIDNEY_R (9 h) of the same molecule?
The KIDNEY_R was 0.9 g.

And the KIDNEY_TOTAL (9 h)?
The KIDNEY_TOTAL was 1.8 g.

And the LIVER (9 h)?
Its LIVER is 7.9 g.

What about the ALP (9 h) of the same molecule?
The ALP was 712.8 IU/L.

What about the ALT (9 h) of the same molecule?
The ALT was 34.4 IU/L.

And the AST (9 h)?
The AST was 77.2 IU/L.

What about the BUN (9 h) of the same molecule?
Its BUN is 15 mg/dL.

And the CRE (9 h)?
The CRE was 0.4 mg/dL.

What about the Ca (9 h) of the same molecule?
Its Ca is 8 mg/dL.

What about the Cl (9 h) of the same molecule?
The Cl was 105.2 meq/L.

And the DBIL (9 h)?
The DBIL was 0.048 mg/dL.

What about the GLC (9 h) of the same molecule?
Its GLC is 211.4 mg/dL.

What about the IP (9 h) of the same molecule?
Its IP is 7.6 mg/dL.

And the K (9 h)?
The K was 3.3 meq/L.

What about the LDH (9 h) of the same molecule?
Its LDH is 212.4 IU/L.

What about the Na (9 h) of the same molecule?
The Na was 139.4 meq/L.

What about the PL (9 h) of the same molecule?
Its PL is 97.2 mg/dL.

What about the RALB (9 h) of the same molecule?
Its RALB is 3.4 g/dL.

And the TBIL (9 h)?
The TBIL was 0.092 mg/dL.

What about the TC (9 h) of the same molecule?
The TC was 59.4 mg/dL.

What about the TG (9 h) of the same molecule?
Its TG is 11 mg/dL.

What about the TP (9 h) of the same molecule?
Its TP is 5.6 g/dL.

What about the gamma-GTP (9 h) of the same molecule?
The gamma-GTP was 0.8 IU/L.

What about the TERMINAL_BW (24 h) of the same molecule?
Its TERMINAL_BW is 210.7 g.

And the APTT (24 h)?
Its APTT is 32.6 s.

And the Bas (24 h)?
The Bas was 0%.

And the Eos (24 h)?
Its Eos is 0.8%.

And the Fbg (24 h)?
The Fbg was 223 mg/dL.

What about the Hb (24 h) of the same molecule?
Its Hb is 14.7 g/dL.

And the Ht (24 h)?
Its Ht is 39.8%.

What about the Lym (24 h) of the same molecule?
The Lym was 69.2%.

What about the MCH (24 h) of the same molecule?
Its MCH is 22 pg.

What about the MCHC (24 h) of the same molecule?
Its MCHC is 37%.

And the MCV (24 h)?
Its MCV is 59.4 fL.

And the Mono (24 h)?
Its Mono is 2.6%.

What about the Neu (24 h) of the same molecule?
Its Neu is 26.4%.

What about the Plat (24 h) of the same molecule?
Its Plat is 125.8 x10_4/uL.

What about the RBC (24 h) of the same molecule?
The RBC was 669.4 x10_4/ul.

And the Ret (24 h)?
Its Ret is 7.5%.

And the WBC (24 h)?
Its WBC is 56.2 x10_2/uL.

What about the KIDNEY_L (24 h) of the same molecule?
Its KIDNEY_L is 0.9 g.

And the KIDNEY_R (24 h)?
The KIDNEY_R was 0.9 g.

And the KIDNEY_TOTAL (24 h)?
Its KIDNEY_TOTAL is 1.9 g.

And the LIVER (24 h)?
The LIVER was 7 g.

What about the ALP (24 h) of the same molecule?
The ALP was 912.4 IU/L.

And the ALT (24 h)?
The ALT was 30 IU/L.

And the AST (24 h)?
The AST was 138.6 IU/L.

And the BUN (24 h)?
Its BUN is 14.6 mg/dL.

And the CRE (24 h)?
The CRE was 0.4 mg/dL.

What about the Ca (24 h) of the same molecule?
The Ca was 7 mg/dL.

And the Cl (24 h)?
The Cl was 104 meq/L.

And the DBIL (24 h)?
The DBIL was 0.048 mg/dL.

What about the GLC (24 h) of the same molecule?
The GLC was 230.6 mg/dL.

What about the IP (24 h) of the same molecule?
The IP was 6.3 mg/dL.

What about the K (24 h) of the same molecule?
The K was 3.1 meq/L.

What about the LDH (24 h) of the same molecule?
The LDH was 232.4 IU/L.

And the Na (24 h)?
Its Na is 138.4 meq/L.

And the PL (24 h)?
Its PL is 81.6 mg/dL.

And the RALB (24 h)?
Its RALB is 3.5 g/dL.

And the TBIL (24 h)?
The TBIL was 0.092 mg/dL.

What about the TC (24 h) of the same molecule?
The TC was 44.4 mg/dL.

And the TG (24 h)?
The TG was 24.8 mg/dL.

And the TP (24 h)?
The TP was 5.7 g/dL.

What about the gamma-GTP (24 h) of the same molecule?
Its gamma-GTP is 1.4 IU/L.
